According to patent US20100286079A1, “COMPOSITION COMPRISING COVALENT CONJUGATES OF CHITOSAN AND AN ACIDIC DRUG AND PARENTERAL ADMINISTRATION” (priority 2007, published 2010):

How the values were obtained:
[1] = Solubility in water / aqueous solution; settings: as observed during preparation
[2] = single 200-mg oral dose, fasting subjects; cited from earlier work

solubility in aqueous medium [1] | Structure (SMILES) | time of peak plasma levels after administration [2]
insoluble | CC(=O)O.CC(C)Cc1ccc(C(C)C(=O)O)cc1 (centres unmarked) [Ibuprofen ethanoate] | 
 | CC(C)Cc1ccc(C(C)C(=O)O)cc1 (centres unmarked) [Ibuprofen] | about 1 hr
